# Laboratory results published in patent publication US6436990B1, “6-methoxy-2-naphthylacetic acid prodrugs” (Nobex Corporation, priority 1999, dated 2002).
# How the values were obtained:
# Rat Paw Edema = experiment: Rat Paw Edema; assay type: in vivo; conditions: for % Inhibition: one dose per compound (Dose column, mg/kg): Nabumetone 79.0, 6-MNA 75.0, Indomethacin 10.0, Example 1 94.3, Example 2 121.0, Example 3 94.9, Example 4 121.0
# [1] = oral administration; cited from earlier work
SMILES,% Inhibition (Rat Paw Edema),melting point,ED50 (Rat Paw Edema),share of orally administered nabumetone transferred in vivo into 6MNA [1]
"COc1ccc2cc(CC(=O)OCCOCCO[N+](=O)[O-])ccc2c1 [Example 2, (6-Methoxy-naphthalen-2-yl)-acetic acid 2-(2-nitrooxy-ethoxy)-ethyl ester]",57%,,,
"COc1ccc2cc(CC(N)=O)ccc2c1 [Example 10, 2-(6-methoxy-naphthalen-2-yl)-acetamide]",,234 to 236 °C,,
"COc1ccc2c(c1)c(CC(=O)O)c(C)n2C(=O)c1ccc(Cl)cc1 [Indomethacin, reference compound]",51%,,,
"COCCNC(=O)Cc1ccc2cc(OC)ccc2c1 [Example 8, N-(2-methoxy-ethyl)-2-(6-methoxy-naphthalen-2-yl)-acetamide]",,129 °C,,
"COc1ccc2cc(CCC(C)=O)ccc2c1 [Nabumetone, nabumetone, reference compound]",60%,,35.9 mg/kg,about 35%
"COc1ccc2cc(CC(=O)OCC(=O)O)ccc2c1 [Example 3, (6-methoxy-naphthalen-2-yl)-acetic acid carboxymethyl ester]",58%,190 to 192 °C (dec.),,
"COc1ccc2cc(CC(=O)OCC(C)=O)ccc2c1 [Example 1, (6-methoxy-naphthalen-2-yl)-acetic acid 2-oxo-propyl ester]",65%,122 to 124 °C,33.9 mg/kg,
"CCOC(=O)COC(=O)Cc1ccc2cc(OC)ccc2c1 [Example 4, (6-methoxy-naphthalen-2-yl)-acetic acid ethoxycarbonylmethyl ester]",38%,38 to 40 °C,,
"COc1ccc2cc(CC(=O)O)ccc2c1 [Example 6-MNA, 6-methoxy-2-naphthylacetic acid]",45%,,,
